Test results taken from patent US20180353505A1, “COMPATIBLE SOLUTE OR SOLUTE MIXTURE FOR USE IN THE PREVENTION OR TREATMENT OF DISEASES HAVING BARRIER DEFECTS IN EPITHELIAL TISSUES” (bitop AG, priority 2015, published 2018).
Values joined by “and” are separate entries in the source; they are usually repeats but may differ in a detail not shown here. Identical values can stand only once.

Assays:
[1] = system: rat bronchial epithelial cells (RLE); experiment: Allergy prevention assay (APA), OVA penetration, RLE monolayer; type: cell-based
Source text: (§1) The cell culture vessel (6) comprises an inner (7) and an outer (5) reservoir, wherein the two compartment are partitioned by a transparent ThinCerts membrane (5) having a pore size of 0.4 μm. This pore size allows for cytokine and protein movement between the outer and inner reservoir (FIG. 6.) Eukaryotic cells may not pass through this membrane thus forming a single-layered closed cell layer which covers the whole membrane. In doing so, an arrangement is achieved by the experimental setup which reflects the apical side (outer reservoir) and basolateral side (inner reservoir within the inset) of epithelial cells. However, allergens, such as e.g. ovalbumin (OVA), may pass the membrane without problems due to their low molecule size.
(§2) If a closed epithelial cell layer is present, OVA may only pass this membrane barrier through “gaps”, tight junction or transcytosis from the apical to the basolateral side. […]
(§3) The cells of the respective cell line (see Table 3) were cultivated on a membrane (3) (FIG. 6) until formation of a closed single-layered cell layer (2) (synonymously epithelial monolayer). […] Subsequently, the OVA content was measured in the inner and outer reservoir by means of OVA-specific ELISA and the relative penetration of the epithelial monolayer with OVA in pretreated and non-treated cells was determined.

Claudin-1 = Claudin-1 expression in HaCaT monolayer after heat stress (ELISA); type: cell-based, human
Procedure: The HaCaT cell line was cultured in a plastic cell culture vessel until a closed single-layered cell layer (HaCaT monolayer) was formed. Subsequently, the monolayer was pretreated with 50 mM or 100 mM ectoine in cell culture medium for 6 hours (h). After pretreatment, temperature treatment of the cells was made at 44° C. for 30 min. After heat stress, the monolayer was again incubated in the incubator at 37° C. for 24 hours. Subsequently, the HaCaT monolayer was harvested and, after lysis by means of cryoshock (freezing, unfreezing and scraping with spatula), the lysate was analysed for Claudin-1 by means of ELISA.

[2] = system: human nasal mucosa epithelial cells (RPMI-2650); experiment: Allergy prevention assay (APA), OVA penetration, RPMI-2650 monolayer; type: cell-based
Source text: as §1, §2, §3

HaCaT (drying stress) = experiment: Allergy prevention assay (APA) with drying stress, HaCaT monolayer; type: cell-based, human
Source text: as §1, §2
as §3, with “determined. […]” for “determined.”

[3] = system: epithelial cells of the oral mucosa (TR146); experiment: Allergy prevention assay (APA), OVA penetration, TR146 monolayer; type: cell-based, human; conditions: TR146, OVA + 100 mM ectoine
Source text: as §1, §2, §3

[4] = system: rabbit corneal epithelial cells (SIRC); experiment: Allergy prevention assay (APA), OVA penetration, SIRC monolayer; type: cell-based
Source text: as §1
If a closed epithelial cell layer is present, OVA may only pass this membrane barrier through “gaps”, tight junction or transcytosis from the apical to the basolateral side. (Ding L, Zhang Y, Jiang Y, Wang L, Liu B, Liu J (2014) Transport of egg white ACE-Inhibitory peptide, Gln-Ile-Gly-Leu-Phe, in human intestinal Caco-2 cell monolayers with cytoprotective effect. J Agric Food Chem (Epub ahead of print)).
The cells of the respective cell line (see Table 3) were cultivated on a membrane (3) (FIG. 6) until formation of a closed single-layered cell layer (2) (synonymously epithelial monolayer). Subsequently, the epithelial monolayer was pretreated with ectoine (10, 50, 100 mM) in cell culture medium for 6 hours. After pretreatment with ectoine, the epithelia monolayer was incubated with 250 μg/ml of the allergen OVA (FIG. 6) over night. Subsequently, the OVA content was measured in the inner and outer reservoir by means of OVA-specific ELISA and the relative penetration of the epithelial monolayer with OVA in pretreated and non-treated cells was determined.

[5] = system: human keratinocytes (HaCaT); experiment: TEER of HaCaT monolayer after overnight incubation and air drying (FIG. 5); type: cell-based; conditions: preincubation with ectoine (50/100 mM), air drying 5 min at RT, rehydration, 24 h with OVA
Procedure: (§4) A defined strength (U) of a direct current (DC) is applied between two electrodes E1 and E2 for determination of TEER, wherein the single-layered cell layer (monolayer) is arranged between the two electrodes (FIG. 1), such that the applied direct current (DC) flows through the cells. The measurement of TEER is made by an epithelial voltmeter (EVOM2). The resulting current I is measured according to the ohmic resistance R, wherein R=U/I (Benson K, Cramer S, Galla H J (2013) Impedance-based cell monitoring: Barrier properties and beyond. FluidsBarriers, 10:5.). […]
(§5) The intact epithelial monolayer was respectively controlled by a TEER measurement. If no increase were measured in the TEER over two days, the epithelial cells have formed an intact epithelial monolayer having intact epithelial barrier (selective permeability barrier).
In a further experiment, an intact epithelial monolayer of human keratinocytes (HaCaT) was also incubated in cell culture medium with PBS (control), with 50 mM ectoine and with 100 mM ectoine over night. […] After air drying at RT under sterile conditions, the cells were overlaid with medium including OVA allergen (250 μg/ml) and incubated at 37° C. in the incubator for 24 hours and subsequently the TEER value was measured.

[6] = system: epithelial cells of oral mucosa (TR146); experiment: TEER of TR146 monolayer after 12 h incubation, no stress (FIG. 2); type: cell-based, human
Procedure: A defined strength (U) of a direct current (DC) is applied between two electrodes E1 and E2 for determination of TEER, wherein the single-layered cell layer (monolayer) is arranged between the two electrodes (FIG. 1), such that the applied direct current (DC) flows through the cells. The measurement of TEER is made by an epithelial voltmeter (EVOM2). The resulting current I is measured according to the ohmic resistance R, wherein R=U/I (Benson K, Cramer S, Galla H J (2013) Impedance-based cell monitoring: Barrier properties and beyond. FluidsBarriers, 10:5.).
For this purpose, in in vitro experiments, epithelial tissues were sown on special cell culture carrier having a membrane (ThinCerts, pore size 0.4 μm) and cultured to a closed, single-layered cell layer (synonymously epithelial monolayer) on the membrane (FIG. 1).
as §5
In order to measure effects of ectoine on barrier function, in particular membrane integrity, TR146 cells of an intact epithelial monolayer were incubated in cell culture medium with PBS (control), with 50 mM ectoine and with 0.1% lecithin (positive control) for 12 hours (h).

[7] = system: porcine renal epithelial cells (LLC-PK1); experiment: TEER of LLC-PK1 monolayer after overnight incubation and BAK stress (FIG. 4); type: cell-based; conditions: LLC-PK1, 50 mM ectoine over night, then BAK stress
Procedure: as §4, §5
Additionally, an intact epithelial monolayer of porcine renal epithelial cells (LLC-PK1) was also incubated in cell culture medium with PBS (control), with 50 mM ectoine and with 0.1% lecithin (positive control) over night. Subsequently, stress treatment was made with 0.001% BAK and change of the transepithelial electric resistance [Ohm] was monitored hourly (FIG. 4).

[8] = system: human keratinocytes (HaCaT); experiment: Allergy prevention assay (APA), OVA penetration, HaCaT monolayer; type: cell-based; conditions: OVA + 10 mM ectoine
Source text: as §1, §2, §3

[9] = system: epithelial cells of the oral mucosa (TR146); experiment: TEER of TR146 monolayer after overnight incubation and 0.005% SDS stress (FIG. 3); type: cell-based, human; conditions: then 0.005% SDS
Procedure: as §4, §5
In order to subsequently measure the effect of ectoine on membrane stability under the influence of chemicals, an intact epithelial monolayer of epithelial cells of the oral mucosa (TR146) were incubated in cell culture medium with PBS (control), with 50 mM ectoine and with 0.1% lecithin (positive control) over night. Subsequently, stress treatment was made with 0.005% SDS and change of the transepithelial electric resistance [Ohm] was monitored hourly (FIG. 3).

In the case of `CC1=NC(C(=O)O)CCN1` (stereo not shown) [ectoine, 1,4,5,6-tetrahydro-2-methyl-4-pyrimidine carboxylic acid], the “Penetrations protection (as compared to PBS) [%] +/− SD” value (from here on “Penetrations protection … [%] +/− SD”) ([1]; OVA + 50 mM ectoine) is reported as −6.3 +/−7.91^ %, the “Penetrations protection … [%] +/− SD” value ([1]; OVA + 100 mM ectoine) is reported as −124.5 +/− 3.72% and the “Claudin-1 expression, factor over medium and PBS without ectoine” value (Claudin-1; 100 mM ectoine, 24 hours) is reported as 3. For the same molecule, the “Claudin-1 expression [Claudin-1] +/− SD” value (Claudin-1; Ectoine 100 mM 6 h, 44° C. 30 min, 24 h at 37° C.) was 0.22 ng/ml +/− 0.006, the “Penetrations protection … [%] +/− SD” value ([2]; OVA + 10 mM ectoine) was 23.5 +/− 17.1% and the “Penetrations protection … [%] +/− SD” value ([2]; OVA + 100 mM ectoine) was “up to 50%”. For the same molecule, the “Penetrations protection … [%] +/− SD” value (HaCaT (drying stress); OVA + 50 mM ectoine) was 12% and 8.1 +/− 8.01%, the “Penetrations protection … [%] +/− SD” value (HaCaT (drying stress); OVA + 100 mM ectoine) was 11.6 +/− 6.25% and the “Penetrations protection … [%] +/− SD” value [3] was 13.44 +/− 7.69%. The “Penetrations protection … [%] +/− SD” value ([4]; OVA + 10 mM ectoine) was 0 +/− 11.52%, the “Penetrations protection … [%] +/− SD” value ([4]; OVA + 50 mM ectoine) was 16.3 +/− 2.31% and the “Penetrations protection … [%] +/− SD” value ([4]; OVA + 100 mM ectoine) was “up to 50%”. The TEER [5] was “approx. 180 Ohm”, the TEER value ([6]; TR146, 50 mM ectoine) was 215 Ohm and the “Effect on TEER / membrane stability” value [7] was “stabilization of the membrane of epithelial cells LLC-PK1 is already achieved”. The “Penetrations protection … [%] +/− SD” value [8] was −0.61 +/− 0.1% and the TEER ([9]; TR146, 50 mM ectoine over night) was 215 Ohm.

Work on lecithin [reference compound] yielded a TEER value ([6]; TR146, 0.1% lecithin (positive control)) of 225 Ohm and a TEER ([9]; TR146, 0.1% lecithin over night) of 225 Ohm.
